Consider 16 compounds from patent US8362000B2, “Azetidinyl diamides as monoacylglycerol lipase inhibitors” (Janssen Pharmaceutica NV, priority 2009, dated 2013).

Numbering of substitutions follows the chain as printed. Read-outs that look alike come from different tables or passages of the source.

One assay has as its target T1, MGL (Rattus norvegicus, UniProt Q8R431).
T1 construct: one g rat brain was homogenized using a Polytron homogenizer; from tissue; host or cells: rat brain homogenate
T1 sequence (Q8R431 1-303): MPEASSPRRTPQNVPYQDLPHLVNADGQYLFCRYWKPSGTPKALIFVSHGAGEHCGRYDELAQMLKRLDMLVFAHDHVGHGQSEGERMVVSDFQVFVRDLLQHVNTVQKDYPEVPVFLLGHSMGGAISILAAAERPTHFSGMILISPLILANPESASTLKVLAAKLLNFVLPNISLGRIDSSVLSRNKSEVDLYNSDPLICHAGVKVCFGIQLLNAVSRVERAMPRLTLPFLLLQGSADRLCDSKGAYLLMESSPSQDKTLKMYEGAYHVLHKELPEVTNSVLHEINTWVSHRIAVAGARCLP
As to the kind of experiment: 2-AG accumulation assay in rat brain homogenate. The following applies: rat brain homogenate, 2-AG accumulation as percent of vehicle; for 2-AG accumulation, % of vehicle control at 1 µM: read-out: Rat Brain 2AG % VehCntrl (%) @ 1 μM; for 2-AG accumulation, % of vehicle control at 0.1 µM: compound 0.1 μM, read-out: Rat Brain 2AG % VehCntrl (%) @ 0.1 μM; for 2-AG accumulation, % of vehicle control at 10 µM: compound 10 μM, read-out: Rat Brain 2AG % VehCntrl (%) @ 10 μM; for 2-AG accumulation, % of vehicle control at 0.01 µM: compound 0.01 μM, read-out: Rat Brain 2AG % VehCntrl (%) @ 0.01 μM. Format: biochemical.

Another assay has as its target T2, mutant MGL (Homo sapiens, UniProt Q99685, L169S/L176S).
T2 sequence (Q99685 1-303 L169S/L176S): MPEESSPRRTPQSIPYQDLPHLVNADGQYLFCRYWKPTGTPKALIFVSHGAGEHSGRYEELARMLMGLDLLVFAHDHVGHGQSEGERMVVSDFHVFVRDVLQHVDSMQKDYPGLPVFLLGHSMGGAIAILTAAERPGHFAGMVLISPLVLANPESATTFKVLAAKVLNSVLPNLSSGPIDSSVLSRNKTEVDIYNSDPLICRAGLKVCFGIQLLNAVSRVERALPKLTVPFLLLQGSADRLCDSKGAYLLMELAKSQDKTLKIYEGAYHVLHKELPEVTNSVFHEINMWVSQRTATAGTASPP
As to the kind of experiment: MGL ThermoFluor assay - mutant. Format: binding. In general terms: DSF heats the sample and reads unfolding from a dye or from intrinsic fluorescence.

The subject of assay [1] is CFA-induced paw radiant heat hypersensitivity. As to the kind of experiment: CFA-induced paw radiant heat hypersensitivity. In kind it is in vivo, rat. The following applies: 30 mg/kg p.o., HPβCD, last time point 180 or 300 min; for inhibition in vivo at 30 mg/kg: Rattus norvegicus, po.
Assay [2] addresses T3, purified wild type MGL (wt-MGLL 6H-11-313) (Homo sapiens, UniProt Q99685).
T3 sequence (Q99685 1-303): T2 sequence (Q99685 1-303 L169S/L176S) with S169L, S176L

The mark [3] stands for this setting: ThermoFluor thermal stability binding assay, read-out: MGL mutant ThermoFluor Kd.
Where [4] appears, read: ThermoFluor, compound concentration measured by qNMR, read-out: MGL mutant ThermoFluor qKd (μM) (using qNMR conc.).
[5] abbreviates: group mean values, read-out: CFA thermal hypersensitivity Method 1: peak % reversal.
[6] abbreviates: ThermoFluor concentration-response, read-out: MGL mutant ThermoFluor Kd.
Setting [7] is: individual animal values, read-out: CFA thermal hypersensitivity Method 2: peak % reversal.

As usually defined, the IC50 is the concentration at which inhibition is half-maximal. Higher therefore signals a need for much substance. Take `O=C(c1ccccc1)N1CCN(C2CN(C(=O)c3ccc4c(ccn4-c4ccc(F)c(F)c4)c3)C2)CC1` [Cpd 571, 1-(3,4-Difluorophenyl)-5-({3-[4-(phenylcarbonyl)piperazin-1-yl]azetidin-1-yl}carbonyl)-1H-indole]: the 2-AG accumulation, % of vehicle control at 1 µM on MGL (compound 1 μM) was found to be 307%. Further, the figures for the Kd at mutant MGL (setting [3]) and at mutant MGL (setting [4]) were 0.046 µM and 0.08 µM, respectively. Further, the inhibition in vivo at 30 mg/kg in assay [1] (setting [5]) amounted to 133%. Moreover, the IC50 in assay [2] worked out at 28 nM.
As for `C/C(=C\c1ccc(Cl)cc1)c1c(C)c(C(=O)N2CC(N3CCN(C(=O)c4nccs4)CC3)C2)nn1-c1ccc(Cl)cc1Cl` [Cpd 1010], on MGL (compound 1 μM), the “Rat Brain 2AG % VehCntrl (%) @ 1 μM” value stood at 1953%. Further, the Kd worked out at 0.017 µM on mutant MGL (MGL mutant ThermoFluor Kd, ThermoFluor concentration-response) and 0.04 µM at mutant MGL (MGL mutant ThermoFluor qKd (using qNMR conc.), compound concentration measured by qNMR). Further, the “CFA thermal hypersensitivity Method 1: peak % reversal” value in assay [1] (group mean values) is listed as 23.4%. This compound came in with an IC50 in assay [2] below 5 nM.
Consider `O=C(c1ccc(-c2ccccc2)cc1)N1CC(N2CCN(C(=O)c3cscn3)CC2)C1` [Cpd 7, 1-[1-(Biphenyl-4-ylcarbonyl)azetidin-3-yl]-4-(1,3-thiazol-4-ylcarbonyl)piperazine], for which the 2-AG accumulation, % of vehicle control at 0.1 µM at MGL was 216%. Further, the 2-AG accumulation, % of vehicle control at 1 µM at MGL (compound 1 μM) is 238%. Further, the 2-AG accumulation, % of vehicle control at 10 µM on MGL came to 568%. Moreover, the Kd at mutant MGL (setting [6]) is 0.0466 µM. Besides, the inhibition in vivo at 30 mg/kg in assay [1] (setting [5]) was 77.8%; in assay [1] (setting [7]) it was 76.2%. In assay [2], this compound came in with an IC50 of 131 nM.
Consider `O=C(c1ccccc1)N1CCN(C2CN(C(=O)c3sc4cc(Br)ccc4c3Cl)C2)CC1` [Cpd 331], for which the 2-AG accumulation, % of vehicle control at 1 µM at MGL (compound 1 μM) amounted to 310%. Moreover, the Kd at mutant MGL (setting [3]) stood at 0.0069 µM. For the same compound, the inhibition in vivo at 30 mg/kg in assay [1] (setting [5]) came out at 14.3%. The IC50 in assay [2] was found to be 45.7 nM.
For `O=C(c1ccc2c(cnn2-c2ccccc2)c1)N1CC(N2CCN(C(=O)c3nccs3)CC2)C1` [Cpd 1360, 1-Phenyl-5-({3-[4-(1,3-thiazol-2-ylcarbonyl)piperazin-1-yl]azetidin-1-yl}carbonyl)-1H-indazole], on MGL (compound 1 μM), the 2-AG accumulation, % of vehicle control at 1 µM is 576%. Besides, the Kd at mutant MGL (setting [6]) was 0.008 µM. Further, the inhibition in vivo at 30 mg/kg in assay [1] (setting [5]) and in assay [1] (setting [7]) was 40.5% in each case. Besides, the IC50 in assay [2] was below 5 nM.
Turning to `O=C(c1ccc2c(ccn2-c2ccc(C(F)(F)F)cc2)c1)N1CCN(C2CN(C(=O)c3nccs3)C2)CC1` [Cpd 1338, 5-({4-[1-(1,3-Thiazol-2-ylcarbonyl)azetidin-3-yl]piperazin-1-yl}carbonyl)-1-[4-(trifluoromethyl)phenyl]-1H-indole], the 2-AG accumulation, % of vehicle control at 1 µM on MGL (compound 1 μM) worked out at 877%. Moreover, at mutant MGL (setting [6]), the Kd was found to be 0.015 µM. The inhibition in vivo at 30 mg/kg in assay [1] (setting [5]) was found to be 86.3%. The IC50 in assay [2] was below 5 nM.
`O=C(c1ccc2c(ccn2-c2ccc(F)cc2F)c1)N1CC(N2CCN(C(=O)c3nccs3)CC2)C1` [Cpd 1364, 1-(2,4-Difluorophenyl)-5-({3-[4-(1,3-thiazol-2-ylcarbonyl)piperazin-1-yl]azetidin-1-yl}carbonyl)-1H-indole]: the 2-AG accumulation, % of vehicle control at 1 µM at MGL (compound 1 μM) was determined as 944%. Also, the Kd on mutant MGL (setting [6]) was found to be 0.001 µM. Besides, the inhibition in vivo at 30 mg/kg in assay [1] (setting [5]) was 17%. The same compound yielded an IC50 in assay [2] below 5 nM.
For the compound `O=C(c1cscn1)N1CCN(C2CN(C(=O)c3sc4cc(C(F)(F)F)ccc4c3F)C2)CC1` [Cpd 653], the 2-AG accumulation, % of vehicle control at 1 µM at MGL (compound 1 μM) was found to be 861%. Moreover, on mutant MGL (setting [6]), the Kd worked out at 0.011 µM. The inhibition in vivo at 30 mg/kg in assay [1] (setting [5]) was -10.7%. The compound further came in with an IC50 in assay [2] of 7 nM.
Take `Cc1nc(-c2ccc(Cl)cc2)sc1C(=O)N1CC(N2CCN(C(=O)c3nccs3)CC2)C1` [Cpd 489, 1-(1-{[2-(4-Chlorophenyl)-4-methyl-1,3-thiazol-5-yl]carbonyl}azetidin-3-yl)-4-(1,3-thiazol-2-ylcarbonyl)piperazine]: on MGL, the 2-AG accumulation, % of vehicle control at 0.01 µM stood at 119%; the 2-AG accumulation, % of vehicle control at 0.1 µM is 235%; the 2-AG accumulation, % of vehicle control at 10 µM is 950%. Also, at MGL (compound 1 μM), the 2-AG accumulation, % of vehicle control at 1 µM is 790%. For the same compound, on mutant MGL (setting [6]), the Kd was determined as 0.0104 µM. Further, in assay [1] (setting [5]), the inhibition in vivo at 30 mg/kg amounted to 27.1%. For the same compound, the inhibition in vivo at 30 mg/kg in assay [1] (setting [7]) is 43.5%. 9 nM corresponded to half-maximal inhibition in assay [2] (IC50).
In the case of `O=C(c1ccccc1)N1CCN(C2CN(C(=O)c3sc4cc(C(F)(F)F)ccc4c3F)C2)CC1` [Cpd 509], at MGL (compound 1 μM), the 2-AG accumulation, % of vehicle control at 1 µM turned out to be 242%. The Kd on mutant MGL (setting [6]) turned out to be 0.033 µM. Also, the inhibition in vivo at 30 mg/kg in assay [1] (setting [5]) was determined as 17.8%. Further, in assay [2], inhibition was half-maximal at 136 nM (IC50).
Turning to `O=C(c1cscn1)N1CCN(C2CN(C(=O)c3sc4cc(Br)ccc4c3Cl)C2)CC1` [Cpd 333, 1-{1-[(6-Bromo-3-chloro-1-benzothiophen-2-yl)carbonyl]azetidin-3-yl}-4-(1,3-thiazol-4-ylcarbonyl)piperazine], the 2-AG accumulation, % of vehicle control at 1 µM at MGL (compound 1 μM) was 291%. The Kd on mutant MGL (setting [3]) was determined as 0.0039 µM. Moreover, in assay [1] (setting [5]), the inhibition in vivo at 30 mg/kg worked out at 27.7%. Further, 16.2 nM corresponded to half-maximal inhibition in assay [2] (IC50).
With `O=C(c1ccccc1)N1CCN(C2CN(C(=O)c3cc4ccc(C(F)(F)F)cc4s3)C2)CC1` [Cpd 325, 1-(Phenylcarbonyl)-4-(1-{[6-(trifluoromethyl)-1-benzothiophen-2-yl]carbonyl}azetidin-3-yl)piperazine], the 2-AG accumulation, % of vehicle control at 1 µM at MGL (compound 1 μM) is 478%. In addition, at mutant MGL (setting [3]), the Kd was 0.0927 µM. The inhibition in vivo at 30 mg/kg in assay [1] (setting [5]) turned out to be 62.1%; in assay [1] (setting [7]), 63.1%. Further, 69.5 nM corresponded to half-maximal inhibition in assay [2] (IC50).
As to `O=C(c1nccs1)N1CCN(C2CN(C(=O)c3sc4cc(C(F)(F)F)c(F)cc4c3Cl)C2)CC1` [Cpd 900], at MGL (compound 1 μM), the 2-AG accumulation, % of vehicle control at 1 µM was 543%. For the same compound, the Kd at mutant MGL (setting [3]) and on mutant MGL (setting [4]) was 0.001 µM each time. For the same compound, the inhibition in vivo at 30 mg/kg in assay [1] (setting [5]) is 8.5%. This compound also showed an IC50 in assay [2] below 5 nM.
`O=C(c1nccs1)N1CCN(C2CN(C(=O)c3ccc(-c4cccc(C(F)(F)F)c4)cc3Cl)C2)CC1` [Cpd 250, 1-(1-{[3-Chloro-3′-(trifluoromethyl)biphenyl-4-yl]carbonyl}azetidin-3-yl)-4-(1,3-thiazol-2-ylcarbonyl)piperazine]: at MGL, the 2-AG accumulation, % of vehicle control at 0.01 µM amounted to 180% and the 2-AG accumulation, % of vehicle control at 0.1 µM was 472%. In addition, the Kd on mutant MGL (setting [3]) was 0.0017 µM. The inhibition in vivo at 30 mg/kg in assay [1] (setting [5]) is 41.7%. In addition, the inhibition in vivo at 30 mg/kg in assay [1] (setting [7]) turned out to be 41.9%. This compound gave an IC50 in assay [2] below 5 nM.
As for `O=C(c1cscn1)N1CCN(C2CN(C(=O)c3sc4cc(-c5ccccc5)ccc4c3Cl)C2)CC1` [Cpd 345], the 2-AG accumulation, % of vehicle control at 1 µM on MGL (compound 1 μM) worked out at 744%. The Kd at mutant MGL (setting [3]) was determined as 0.0031 µM. The inhibition in vivo at 30 mg/kg was 25% in assay [1] (setting [5]) and 26.3% in assay [1] (setting [7]). The compound further had an IC50 in assay [2] below 5 nM.
In the case of `Cc1c(C(=O)N2CC(N3CCN(C(=O)c4ccc[nH]4)CC3)C2)sc2cc(C(F)(F)F)ccc12` [Cpd 657, 1-(1-{[3-Methyl-6-(trifluoromethyl)-1-benzothiophen-2-yl]carbonyl}azetidin-3-yl)-4-(1H-pyrrol-2-ylcarbonyl)piperazine], at MGL (compound 1 μM), the 2-AG accumulation, % of vehicle control at 1 µM worked out at 581%. The Kd on mutant MGL (setting [6]) is 0.002 µM; at mutant MGL (compound concentration measured by qNMR, read-out: MGL mutant ThermoFluor qKd (using qNMR conc.)), 0.002 µM. Further, in assay [1] (setting [5]), the inhibition in vivo at 30 mg/kg worked out at 66%. The IC50 in assay [2] stood at 9 nM.
